Measured values: patent publication US9884818B2, “Sulphamoylpyrrolamide derivatives and the use thereof as medicaments for the treatment of hepatitis B” (Janssen Sciences Ireland UC, priority 2013, dated 2018)

Experiments:
[1] = test system: HBV; assay: Anti-HBV activity, HepG2.117 inducibly HBV producing cell line (Tet-off), intracellular HBV DNA by realtime PCR; assay type: cell-based; conditions: Hepatitis B virus, HepG2.117, 72 h, HepG2.117 cells, 3 days of treatment, intracellular HBV DNA; read-out: HepG2 117 EC50
[2] = Cytotoxicity in HepG2 cells, Resazurin viability assay; conditions: human, HepG2 cells, HepG2 4 days CC50 (μM), incubated for 4 days, Resazurin assay
[3] = test system: HBV; assay: Anti-HBV activity, HepG2.2.15 stable transfected cell line, HBV DNA from secreted virions by realtime PCR; assay type: cell-based; conditions: Hepatitis B virus, HepG2.2.15, 144 h, HepG2.2.15 cells, 6 days of treatment, HBV DNA from secreted virions; read-out: HepG2 2.15 EC50

Compound	EC50 [1]	CC50 at 4 days [2]	EC50 [3]
CC(C)NS(=O)(=O)c1cn(C)c(C(=O)Nc2ccc(F)c(F)c2F)c1F [Compound 233, 3-Fluoro-1-methyl-4-[(1-methylethyl)sulfamoyl]-N-(2,3,4-trifluorophenyl)-1H-pyrrole-2-carboxamide]	0.16 µM	> 25 µM	0.09 µM
Cc1c(S(=O)(=O)NC(C)C)cn(C)c1C(=O)Nc1ccc(F)c(Cl)c1F [Compound 208, N-(3-Chloro-2,4-difluorophenyl)-1,3-dimethyl-4-[(1-methylethyl)sulfamoyl]-1H-pyrrole-2-carboxamide]	0.66 µM	> 25 µM	0.2 µM
Cc1cc(NC(=O)c2cc(S(=O)(=O)NC3(C)CCOC3)cn2C)ccc1F (stereo not drawn) [Compound 11, N-(4-fluoro-3-methyl-phenyl)-1-methyl-4-[(3-methyltetrahydrofuran-3-yl)sulfamoyl]pyrrole-2-carboxamide]	0.02 µM	> 25 µM	0.03 µM
Cn1cc(S(=O)(=O)NC2(C(F)(F)F)CCOCC2)cc1C(=O)Nc1ccc(F)c(C#N)c1 [Compound 247, N-(3-cyano-4-fluoro-phenyl)-1-methyl-4-{[4-(trifluoromethyl)tetrahydropyran-4-yl]sulfamoyl}-1H-pyrrole-2-carboxamide]	0.03 µM	> 25 µM	0.03 µM
Cc1cc(NC(=O)c2cc(S(=O)(=O)NC3(CO)COC3)cn2C)ccc1F [Compound 10, N-(4-fluoro-3-methyl-phenyl)-4-[[3-(hydroxymethyl)oxetan-3-yl]sulfamoyl]-1-methyl-pyrrole-2-carboxamide]	0.08 µM	> 25 µM	0.11 µM
C[C@@H](NS(=O)(=O)c1cn(C)c(C(=O)Nc2ccc(F)c(F)c2)c1F)C(F)(F)F [Compound 229, N-(3,4-Difluorophenyl)-3-fluoro-1-methyl-4-{[(1R)-2,2,2-trifluoro-1-methylethyl]sulfamoyl}-1H-pyrrole-2-carboxamide]	0.004 µM	> 25 µM	0.004 µM
Cc1cc(NC(=O)c2cc(S(=O)(=O)N[C@H]3CCOC3)cn2C)cc(F)c1F [Compound 37, N-(3,4-difluoro-5-methyl-phenyl)-1-methyl-4-[[(3S)-tetrahydrofuran-3-yl]-sulfamoyl]pyrrole-2-carboxamide]	0.38 µM	> 25 µM	0.73 µM
Cn1cc(S(=O)(=O)NC2(C)COC2)c(F)c1C(=O)Nc1cc(F)c(F)c(Cl)c1 [Compound 111, N-(3-Chloro-4,5-difluorophenyl)-3-fluoro-1-methyl-4-[(3-methyloxetan-3-yl)sulfamoyl]-1H-pyrrole-2-carboxamide]	0.007 µM	> 25 µM	0.007 µM
Cn1cc(S(=O)(=O)NC2(C(F)(F)F)CCC2)cc1C(=O)Nc1ccc(F)c(C#N)c1 [Compound 241, N-(3-Cyano-4-fluorophenyl)-1-methyl-4-{[1-(trifluoromethyl)cyclo-butyl]sulfamoyl}-1H-pyrrole-2-carboxamide]	0.01 µM	> 25 µM	0.01 µM
Cn1cc(S(=O)(=O)NC2(C)COC2)cc1C(=O)Nc1cc(F)cc(C#N)c1 [Compound 54, N-(3-cyano-5-fluoro-phenyl)-1-methyl-4-[(3-methyloxetan-3-yl)-sulfamoyl]pyrrole-2-carboxamide]	0.25 µM	> 25 µM	0.2 µM
Cc1c(S(=O)(=O)NC2(C)COC2)cn(C)c1C(=O)Nc1ccc(F)c(Cl)c1F [Compound 243, N-(3-Chloro-2,4-difluorophenyl)-1,3-dimethyl-4-[(3-methyloxetan-3-yl)sulfamoyl]-1H-pyrrole-2-carboxamide]	0.1 µM	> 25 µM	0.11 µM
Cn1cc(S(=O)(=O)NCC(F)F)cc1C(=O)Nc1ccc(F)c(Br)c1 [Compound 127, N-(3-Bromo-4-fluorophenyl)-4-[(2,2-difluoroethyl)sulfamoyl]-1-methyl-1H-pyrrole-2-carboxamide]	0.19 µM	> 25 µM	0.05 µM
CC(C)NS(=O)(=O)c1cc(C(=O)Nc2ccc(F)c(Cl)c2)n(C)c1 [Compound 174, N-(3-Chloro-4-fluorophenyl)-1-methyl-4-[(1-methylethyl)sulfamoyl]-1H-pyrrole-2-carboxamide]	0.04 µM	> 25 µM	0.08 µM
C[C@H](NS(=O)(=O)c1cc(C(=O)Nc2ccc(F)c(Cl)c2F)n(C)c1)C(F)(F)F [Compound 156, N-(3-Chloro-2,4-difluorophenyl)-1-methyl-4-{[(1S)-2,2,2-trifluoro-1-methylethyl]sulfamoyl}-1H-pyrrole-2-carboxamide]	0.03 µM	> 25 µM	0.04 µM
Cn1cc(S(=O)(=O)NC2(C)CCOC2)cc1C(=O)Nc1ccc(F)c(F)c1 (stereo not drawn) [Compound 91, N-(3,4-Difluorophenyl)-1-methyl-4-[(3-methyltetrahydrofuran-3-yl)sulfamoyl]-1H-pyrrole-2-carboxamide]	0.04 µM	> 25 µM	0.06 µM
Cn1cc(S(=O)(=O)NC2(C)COC2)cc1C(=O)Nc1ccc(F)c(C(F)F)c1 [Compound 39, N-[3-(difluoromethyl)-4-fluoro-phenyl]-1-methyl-4-[(3-methyloxetan-3-yl)sulfamoyl]pyrrole-2-carboxamide]	0.04 µM	> 25 µM	0.05 µM
C[C@@H](NS(=O)(=O)c1cn(C)c(C(=O)Nc2ccc(F)c(C#N)c2)c1Cl)C(F)(F)F [Compound 199, 3-Chloro-N-(3-cyano-4-fluorophenyl)-1-methyl-4-{[(1R)-2,2,2-trifluoro-1-methylethyl]sulfamoyl}-1H-pyrrole-2-carboxamide]	0.008 µM	> 25 µM	0.006 µM
C[C@@H](NS(=O)(=O)c1cn(C)c(C(=O)Nc2ccc(F)c(Cl)c2Cl)c1Cl)C(F)(F)F [Compound 277, 3-chloro-N-(2,3-dichloro-4-fluoro-phenyl)-1-methyl-4-[[(1R)-2,2,2-trifluoro-1-methyl-ethyl]sulfamoyl]pyrrole-2-carboxamide]	0.04 µM	> 25 µM	0.03 µM
Cc1c(S(=O)(=O)N[C@H](C)C(F)(F)F)c(Cl)c(C(=O)Nc2ccc(F)c(C#N)c2)n1C [Compound 282, 3-chloro-N-(3-cyano-4-fluoro-phenyl)-1,5-dimethyl-4-[[(1R)-2,2,2-trifluoro-1-methyl-ethyl]sulfamoyl]pyrrole-2-carboxamide]	0.005 µM	> 25 µM	< 0.005 µM
Cn1cc(S(=O)(=O)NC2(C)COC2)cc1C(=O)Nc1ccc(F)c(Cl)c1 [Compound 78, N-(3-Chloro-4-fluorophenyl)-1-methyl-4-[(3-methyloxetan-3-yl)sulfamoyl]-1H-pyrrole-2-carboxamide]	0.03 µM	> 25 µM	0.02 µM
Cn1cc(S(=O)(=O)NC(C)(C)C)cc1C(=O)Nc1cccc(Cl)c1F [Compound 193, 4-(tert-Butylsulfamoyl)-N-(3-chloro-2-fluorophenyl)-1-methyl-1H-pyrrole-2-carboxamide]	0.11 µM	> 25 µM	0.14 µM
